Results taken from US8012949B2, “Bisphosphonate compounds and methods with enhanced potency for multiple targets including FPPS, GGPPS, and DPPS” (The Board of Trustees of the University of Illinois, priority 2004, dated 2011).
Like-named read-outs stand apart in the source and are kept apart here.

What was measured:
[1] = system: MCF-7 (breast adenocarcinoma); assay: MCF-7 cell growth inhibition (MTT), incl. FOH/GGOH rescue; assay type: cell-based, human; settings: for MCF7 Cell pIC50: Table 3, determined in this work; for IC50: Homo sapiens
Source text: (§1) Cell Growth Inhibition Assays. […] A broth microdilution method was used to determine IC50 values for growth inhibition by each bisphosphonate. […] NBPs were typically initially dissolved in H2O (0.01 M) while NNBPs were typically dissolved in DMSO (0.01 M).
GraphPad PRISM® version 4.0 software for windows (GraphPad Software Inc., San Diego, Calif., www.graphpad.com) was used to fit the data to a rectangular hyperbolic function: I=(ImaxC)/(IC50+C);
For the “rescue” experiments, stock solutions of FOH or GGOH were prepared (in ethanol) and the requisite amounts added to the incubation media to produce a fixed 20 μM concentration.

[2] = system: Vγ2Vδ2 T cells; assay: γδ T cell activation (TNF-α release and proliferation); assay type: cell-based, human; settings: Table 2, -log10(value, M)
Experimental: γδ T Cell Assays. Vγ2Vδ2 T cell TNF-α release and proliferation were performed basically as described previously^1. Briefly, to measure bioactivity for Vγ2Vδ2 T cells, the CD4^+ JN.24, CD4^+ HF.2, CD8αα^+ 12G12, or the CD4^−8^− HD.108 Vγ2Vδ2 T cell clones were stimulated with phosphoantigens in the presence of CP.EBV (an EBV transformed B cell line) for CD4^+ clones or Va-2 (a transformed fibroblast) for CD8αα^+ and CD4^−8^− clones. CP.EBV and Va-2 were fixed with 0.05% glutaraldehyde (EM grade, Sigma, Mo.) for use as APCs. […] Curve fitting minima for each experiment (e.g. TNF-α release from JN.24 cells) were determined using the Global Fitting technique, as implemented in Prism 4.0. Curve fitting maxima were optimized for each individual compound without the use of any constraints.

[3] = system: SF-268 (central nervous system glioblastoma); assay: SF-268 cell growth inhibition (MTT); assay type: cell-based, human; settings: Table 1, experimental
Source text: as §1
(§2) GraphPad PRISM® version 4.0 software for windows (GraphPad Software Inc., San Diego, Calif., www.graphpad.com) was used to fit the data to a rectangular hyperbolic function: I=(ImaxC)/(IC50+C); […]

[4] = target: T1, human DPPS (Homo sapiens, UniProt Q5T2R2); assay: human DPPS enzyme inhibition; assay type: biochemical; settings: Table 1, experimental
T1 construct: made in house
T1 sequence (Q5T2R2 1-415): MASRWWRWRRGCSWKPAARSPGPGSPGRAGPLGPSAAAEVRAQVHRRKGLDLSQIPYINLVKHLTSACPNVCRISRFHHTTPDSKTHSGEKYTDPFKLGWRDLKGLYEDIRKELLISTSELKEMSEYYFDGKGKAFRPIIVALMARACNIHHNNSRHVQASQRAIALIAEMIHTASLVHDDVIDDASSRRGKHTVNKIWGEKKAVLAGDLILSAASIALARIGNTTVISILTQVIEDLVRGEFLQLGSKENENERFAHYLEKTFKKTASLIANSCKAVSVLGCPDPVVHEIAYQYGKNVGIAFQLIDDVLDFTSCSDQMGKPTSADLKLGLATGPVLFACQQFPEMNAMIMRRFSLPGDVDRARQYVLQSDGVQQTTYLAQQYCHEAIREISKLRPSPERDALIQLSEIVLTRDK
T1 sequence (Q86YH6 1-399 partner): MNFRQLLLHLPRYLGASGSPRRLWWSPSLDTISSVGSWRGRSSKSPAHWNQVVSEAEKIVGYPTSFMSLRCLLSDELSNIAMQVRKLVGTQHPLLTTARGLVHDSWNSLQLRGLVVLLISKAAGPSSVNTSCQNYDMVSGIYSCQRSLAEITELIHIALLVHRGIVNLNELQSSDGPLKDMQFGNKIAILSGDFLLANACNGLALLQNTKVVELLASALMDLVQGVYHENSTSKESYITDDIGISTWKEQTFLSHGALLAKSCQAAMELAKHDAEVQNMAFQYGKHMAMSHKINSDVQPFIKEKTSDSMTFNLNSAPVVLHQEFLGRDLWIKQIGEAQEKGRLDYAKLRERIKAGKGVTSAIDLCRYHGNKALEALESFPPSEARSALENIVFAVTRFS
Source text: To test our polypharmaceutical hypothesis, we expressed three enzymes: human FPPS, GGPPS and DPPS, and tested each for their inhibition by a series of bisphosphonates.

[5] = system: NCI-H460 (lung large cell); assay: NCI-H460 cell growth inhibition (MTT); assay type: cell-based, human; settings: Table 1, experimental
Source text: as §1, §2

| Compound | MCF-7 Cell pIC50 (M) ([1]; Table 2, -log10(value, M)) | γδ T Cell Avg pED50 (M) [2] [M] | MCF7 Cell pIC50 [1] | also measured |
| --- | --- | --- | --- | --- |
| CCCCc1ccc[n+](CC(P(=O)([O-])O)P(=O)(O)O)c1 (stereo not drawn) [BPH-476] | 4.58 | 4.00 | – | – |
| O=P(O)(O)C(Cc1cccnc1)P(=O)(O)O [BPH-290] | 3.47 | 4.21 | – | – |
| CCCN(C)CC(P(=O)(O)O)P(=O)(O)O [BPH-693] | 5.32 | 5.28 | – | – |
| O=P([O-])(O)C(C[S+]1CCCC1)P(=O)(O)O (stereo not drawn) [BPH-682] | 4.02 | 3.84 | – | – |
| CN(CCCc1ccccc1)CCC(O)(P(=O)(O)O)P(=O)(O)O [BPH-209, reference compound] | – | – | 4.01 | – |
| CN(CCCCc1ccccc1)CCC(O)(P(=O)(O)O)P(=O)(O)O [BPH-210, reference compound] | – | – | 4.08 | – |
| NCCC(O)(P(=O)(O)O)P(=O)(O)O [BPH-5, reference compound] | – | – | 3.85 | MCF-7 pIC50 (M) ([1]; Table 1, experimental): 3.9 M; SF-268 pIC50 (M) [3]: 3.5 M; DPPS pKi [4]: 6.3; NCI-H460 pIC50 (M) [5]: 4.0 M |
| O=P(O)(O)C(O)(C[n+]1cccc(F)c1)P(=O)(O)O [BPH-461, 3-fluoro-1-(2-hydroxy-2,2-bisphosphonoethyl)-pyridinium] | 4.34 | 4.16 | – | – |
| CC(C)(C)C(=O)OCOP(=O)(O)C(C[n+]1ccccc1)P(=O)([O-])O (stereo not drawn) [BPH-656] | 4.88 | 4.29 | – | – |
| O=P(O)(O)C(O)(Cc1c[nH]cn1)P(=O)(O)O [BPH-18, reference compound] | – | – | 5.41 | – |
| O=P(O)(O)C(O)(Cc1cnc2ccccn12)P(=O)(O)O [BPH-261] | – | – | – | MCF-7 pIC50 (M) ([1]; Table 1, experimental): 4.8 M; SF-268 pIC50 (M) [3]: 4.9 M; DPPS pKi [4]: 6.8; NCI-H460 pIC50 (M) [5]: 4.8 M |
| NCCC(O)(P(=O)(O)O)P(=O)(O)O [pamidronate, reference compound] | – | – | – | IC50 ([1]; MCF7, FIG. 2A, read-out: IC50, MCF-7 tumor cell growth inhibition): ~300 µM |
| O=P(O)(O)C(NC1CCCCCC1)P(=O)(O)O [BPH-31, reference compound] | – | – | 4.30 | – |
| CCCCCCOc1ccc[n+](CC(P(=O)([O-])O)P(=O)(O)O)c1 (stereo not drawn) [BPH-723] | 5.76 | 4.44 | – | – |
| O=P(O)(O)C(N1CCCCCC1)P(=O)(O)O [BPH-57, reference compound] | – | – | 3.60 | – |
| O=P([O-])(O)C(C[n+]1cccc(Cc2ccccc2)c1)P(=O)(O)O (stereo not drawn) [BPH-480] | 3.42 | 3.33 | – | – |
| O=P([O-])(O)C(C[n+]1ccc(Cc2ccccc2)cc1)P(=O)(O)O (stereo not drawn) [BPH-481] | 3.90 | 3.45 | – | – |
| O=P([O-])(O)C(C[n+]1ccccc1)P(=O)(O)O (stereo not drawn) [BPH-470] | 4.14 | 4.12 | – | – |
| CN(CCOc1ccccc1)CCC(O)(P(=O)(O)O)P(=O)(O)O [BPH-219, reference compound] | – | – | 4.93 | – |

| Compound | MCF-7 Cell pIC50 (M) ([1]; Table 2, -log10(value, M)) | γδ T Cell Avg pED50 (M) [2] [M] | MCF7 Cell pIC50 [1] | also measured |
| --- | --- | --- | --- | --- |
| O=P(O)(O)C(Cc1nccs1)P(=O)(O)O [BPH-58, reference compound] | – | – | 3.48 | – |
| CC(C)(C)C(=O)OCOP(=O)(O)C(O)(C[n+]1cccc(F)c1)P(=O)([O-])O (stereo not drawn) [BPH-670] | 4.64 | 4.16 | – | – |
| CCCCCCCCCC[S+](C)CC(P(=O)([O-])O)P(=O)(O)O (stereo not drawn) [BPH-687] | 6.20 | 5.09 | – | – |
| O=P([O-])(O)C(C[n+]1cccc(F)c1)P(=O)(O)O (stereo not drawn) [BPH-477] | 4.77 | 3.80 | – | – |
| CCCCCCCCCCCCCCCCCC[S+](C)CC(P(=O)([O-])O)P(=O)(O)O (stereo not drawn) [BPH-696] | 5.85 | 4.63 | – | – |
| CCCCCCCCCCCC[S+](C)CC(P(=O)([O-])O)P(=O)(O)O (stereo not drawn) [BPH-688] | – | – | – | IC50 ([1]; MCF7, Table 1, experimental, read-out: MCF-7 pIC50 (converted)): 6.31 µM; IC50 ([1]; MCF7, Table 2, -log10(value, M), read-out: MCF-7 Cell pIC50 (converted)): 0.501 µM; EC50 ([2]; Homo sapiens, T-cell, read-out: γδ T Cell Avg pED50 (converted)): 5.62 µM |
| CCCCCCCCCCCCCCCC[S+](C)CC(P(=O)([O-])O)P(=O)(O)O (stereo not drawn) [BPH-695] | 5.95 | 5.68 | – | – |
| CCCCCCCCCCCCc1ccc[n+](CC(P(=O)([O-])O)P(=O)(O)O)c1 (stereo not drawn) [BPH-677] | 4.34 | 4.88 | – | – |
| CN(CCc1ccccc1)CCC(O)(P(=O)(O)O)P(=O)(O)O [BPH-208, reference compound] | – | – | 4.38 | – |
| O=P(O)(O)C(O)(Cn1ccnc1)P(=O)(O)O [BPH-91, reference compound] | – | – | 4.81 | MCF-7 pIC50 (M) ([1]; Table 1, experimental): 4.7 M; SF-268 pIC50 (M) [3]: 4.8 M; DPPS pKi [4]: 7.4; NCI-H460 pIC50 (M) [5]: 4.8 M |
| CC(C)(C)C(=O)OCOP(=O)(O)C(C[n+]1cccc(F)c1)P(=O)([O-])O (stereo not drawn) [BPH-669] | 4.75 | 4.49 | – | – |
| CCCCCCCCOc1ccc[n+](CC(P(=O)([O-])O)P(=O)(O)O)c1 (stereo not drawn) [BPH-714] | 6.82 | 5.29 | – | – |
| C[S+](CCCc1ccccc1)CC(P(=O)([O-])O)P(=O)(O)O (stereo not drawn) [BPH-686] | 4.24 | 3.81 | – | – |
| NCCCC(O)(P(=O)(O)O)P(=O)(O)O [BPH-1, reference compound] | – | – | 3.31 | MCF-7 pIC50 (M) ([1]; Table 1, experimental): 3.3 M; SF-268 pIC50 (M) [3]: 3.5 M; DPPS pKi [4]: 6.3; NCI-H460 pIC50 (M) [5]: 3.5 M |
| CCc1ccc[n+](CC(P(=O)([O-])O)P(=O)(O)O)c1 (stereo not drawn) [BPH-475] | 4.37 | 3.94 | – | – |
| CCCCCN(C)CCC(O)(P(=O)(O)O)P(=O)(O)O [BPH-24, reference compound] | – | – | – | MCF-7 pIC50 (M) ([1]; Table 1, experimental): 3.7 M; SF-268 pIC50 (M) [3]: 3.8 M; DPPS pKi [4]: 7.3; NCI-H460 pIC50 (M) [5]: 3.7 M |
| CCCCOc1ccc[n+](CC(P(=O)([O-])O)P(=O)(O)O)c1 (stereo not drawn) [BPH-721] | 4.70 | 4.10 | – | – |
| O=P(O)(O)C(N1CCCCC1)P(=O)(O)O [BPH-72, reference compound] | – | – | 3.34 | – |
